# Reference: BindingDB's records for doi:10.7270/Q29G5K8R (Burnham Center For Chemical Genomics, 2010)
# Target: Intestinal-type alkaline phosphatase (Homo sapiens, UniProt P09923)
# Assay: activation of human intestinal alkaline phosphatase – biochemical, dose response (AID 488873)
# Sequence of Intestinal-type alkaline phosphatase (P09923 whole entry): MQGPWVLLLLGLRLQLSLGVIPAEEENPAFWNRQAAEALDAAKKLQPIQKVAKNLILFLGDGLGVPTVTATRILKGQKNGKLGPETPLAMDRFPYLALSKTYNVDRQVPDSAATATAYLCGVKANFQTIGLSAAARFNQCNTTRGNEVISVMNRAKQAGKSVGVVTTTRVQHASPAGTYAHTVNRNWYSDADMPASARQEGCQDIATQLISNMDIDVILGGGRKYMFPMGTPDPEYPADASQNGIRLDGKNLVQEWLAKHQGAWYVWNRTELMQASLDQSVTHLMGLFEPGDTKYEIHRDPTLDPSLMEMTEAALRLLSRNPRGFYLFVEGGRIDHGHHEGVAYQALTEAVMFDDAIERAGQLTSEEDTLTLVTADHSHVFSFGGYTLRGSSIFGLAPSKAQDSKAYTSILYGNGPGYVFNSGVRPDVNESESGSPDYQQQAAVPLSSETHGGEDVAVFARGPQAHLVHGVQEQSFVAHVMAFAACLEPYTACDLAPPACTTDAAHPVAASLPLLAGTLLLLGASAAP
row,SMILES,EC50
1,"O=C1CC(=O)c2c(O)cc(O)c(O)c2C1=O [4,5,7,8-tetrahydroxy-1,2-naphthoquinone]",> 100 µM
2,"Oc1ccc(CN=Nc2cc(N3CCCC3)nc(N3CCCC3)n2)cc1O [(4Z)-4-[[2-(2,6-dipyrrolidin-1-ylpyrimidin-4-yl)hydrazinyl]methylidene]-2-hydroxycyclohexa-2,5-dien-1-one]",> 100 µM
3,C#CCOCCOCCOCCNc1nc(N2CCN(C(=O)CCCCCCCCCCNC(=O)[C@@H](CCC(=O)O)n3cc(CCCCCN)nn3)CC2)nc(N2CCN(C(=O)CCCCCCCCCCNC(=O)[C@H]([C@@H](C)CC)n3cc(CCCCCN)nn3)CC2)n1 [KI-KE],> 100 µM
4,Cc1cc(=O)[nH]c(N=NCc2ccc(O)c(O)c2)n1 [MLS001194906],66.2 µM

# Continued, values first:
row,EC50,SMILES
1,26.6 µM,CN(CCO)c1ccc(CN=Nc2ccc([N+](=O)[O-])cc2S(=O)(=O)Nc2ccccc2C(=O)O)cc1
2,66.2 µM,"O=C(NN=CC1=CC(=O)C(=O)CC1)NN=CC1=CC(=O)C(=O)CC1 [1,3-bis[[(Z)-(3-hydroxy-4-oxocyclohexa-2,5-dien-1-ylidene)methyl]amino]urea]"
